Measured values: patent US8889840B2, “Vascular leakage inhibitor” (Industry-Academic Cooperation Foundation, Yonsei University, priority 2009, dated 2014)

Columns and labels:
[1] = test system: occludin; experiment: Occludin western blotting of HREC lysate; assay type: cell-based, human; settings: HRECs, pretreatment 60 minutes, then 20 ng/mL VEGF 1 hour
Description: In FIG. 8b, confluent HRECs were pretreated with Sac0601 (10 μg/mL) for 60 minutes before treating with 20 ng/mL VEGF (1 hr). Then, cell lysate was subjected to western blotting using anti-occludin antibody.
Confluent HRECs were treated with 10 μg/mL Sac0601 (FIG. 8a, panel A) or Sac0504 (FIG. 8a, panel B) for 1 hour and then with 20 ng/mL. VEGF for 1 hour. Subsequently, the cells were fixed at room temperature for 20 minutes with 4% paraformaldehyde and permeabilized with 0:1% Triton X-100/PBS. Then, the cells were incubated in PBS blocking solution containing 5% normal goat serum and 0.05% Tween-20. The cells were then reacted with anti-occludin antibody (Zymed Laboratories Inc.). The result was visualized with fluorescein-conjugated anti-mouse antibody (Vector Lab.). Also, western blotting was conducted for the cell lysate. The cell lysate was fractionated with SDS-PAGE and then transferred to polyvinyl difluoride membrane. The blocked membrane was reacted with anti-occludin antibody (Zymed Laboratories Inc.) and the immune response band was visualized with the chemiluminescence reagent obtained from Amersham Biosciences, Inc.

[2] = test system: C57/BL6 mouse; experiment: Vascular leakage induced by VEGF in mouse retina, FITC-dextran; assay type: in vivo; settings: VEGF 50 ng and compound 10 μg into the vitreous body, 24 hours
Description: VEGF (50 ng) and Sac0601 (10 μg) were injected into the vitreous body of C57/BL6 mouse. An excipient (DMSO) was injected into the other eye. 24 hours after the injection, 100 μL FITC-dextran (30 mg/mL in PBS, Sigma) was injected into the left ventricle. After waiting for about 2 minutes for circulation of the tracer, the eyes were taken out and fixed immediately in 4% PFA, Then, the retina was taken out and observed under an optical microscope.

For `CC(=O)OCC1OC(OC2CCC3(C)C(=CCC4C3CCC3(C)C(C(C)CCCC(C)C)CCC43)C2)C=CC1OC(C)=O` (centres unmarked) [Sac0601], the “occludin (western blotting)” value [1] was “results in decrease of occludin” and the “vascular leakage induced by VEGF” value [2] was “greatly decreases”.
